Results as given in ChEMBL document CHEMBL5338718, “Design and exploration of gut-restricted bifunctional molecule with TGR5 agonistic and DPP4 inhibitory effects for treating ulcerative colitis” (Eur J Med Chem, 2022).
Calls of active or inactive are those of the source. The rule behind the calls is not given here.

Legend:
[1] = target: T1, G-protein coupled bile acid receptor 1 (Mus musculus, UniProt Q80SS6); assay: Agonist activity at mouse TGR5 expressed in human HEK293 cells co-expressing CRE-driven luciferase reporter gene assessed as luciferase activity incubated for 5.5 hrs by Steady-Glo based luciferase assay; format: functional, cell-based
T1 sequence (Q80SS6 whole entry): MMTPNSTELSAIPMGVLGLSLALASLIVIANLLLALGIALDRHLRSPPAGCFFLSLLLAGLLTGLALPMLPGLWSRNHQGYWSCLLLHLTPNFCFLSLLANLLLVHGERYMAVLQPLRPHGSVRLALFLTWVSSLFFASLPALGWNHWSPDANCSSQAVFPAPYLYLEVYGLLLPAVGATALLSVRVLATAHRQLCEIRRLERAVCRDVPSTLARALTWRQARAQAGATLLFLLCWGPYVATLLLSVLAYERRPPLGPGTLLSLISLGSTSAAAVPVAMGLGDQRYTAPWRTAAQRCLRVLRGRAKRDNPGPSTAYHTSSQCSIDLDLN

[2] = target: Dipeptidyl peptidase 4 (Mus musculus, UniProt P28843); assay: Inhibition of mouse serum DPP4 assessed as cleavage of substrate by measuring AMC release using Gly-Pro-AMC as substrate by fluorescence based microplate reader assay; format: cell-free
Sequence of Dipeptidyl peptidase 4 (P28843 whole entry): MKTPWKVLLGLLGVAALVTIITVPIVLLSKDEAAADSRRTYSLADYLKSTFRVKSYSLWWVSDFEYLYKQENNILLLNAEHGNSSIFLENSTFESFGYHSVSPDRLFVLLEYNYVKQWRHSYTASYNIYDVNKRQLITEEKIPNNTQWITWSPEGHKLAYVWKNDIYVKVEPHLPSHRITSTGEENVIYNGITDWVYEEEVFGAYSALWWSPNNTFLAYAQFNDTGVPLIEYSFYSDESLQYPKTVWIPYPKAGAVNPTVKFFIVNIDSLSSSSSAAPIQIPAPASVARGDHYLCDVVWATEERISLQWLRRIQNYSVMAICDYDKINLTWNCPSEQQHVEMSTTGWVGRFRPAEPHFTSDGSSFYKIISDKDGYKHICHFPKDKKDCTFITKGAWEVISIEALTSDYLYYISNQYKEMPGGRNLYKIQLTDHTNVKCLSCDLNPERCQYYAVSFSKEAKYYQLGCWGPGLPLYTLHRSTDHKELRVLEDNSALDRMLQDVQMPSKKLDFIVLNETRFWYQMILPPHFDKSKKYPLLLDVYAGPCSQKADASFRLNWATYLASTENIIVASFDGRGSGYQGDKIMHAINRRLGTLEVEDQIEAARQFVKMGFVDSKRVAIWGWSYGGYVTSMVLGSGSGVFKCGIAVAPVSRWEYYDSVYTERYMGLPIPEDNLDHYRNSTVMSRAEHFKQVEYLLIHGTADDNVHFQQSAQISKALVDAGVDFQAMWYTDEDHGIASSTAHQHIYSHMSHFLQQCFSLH

[3] = target: T2, G-protein coupled bile acid receptor 1 (Homo sapiens, UniProt Q8TDU6); assay: Agonist activity at human TGR5 expressed in human HEK293 cells co-expressing CRE-driven luciferase reporter gene assessed as luciferase activity incubated for 5.5 hrs by Steady-Glo based luciferase assay; format: functional, cell-based
T2 sequence (Q8TDU6 whole entry): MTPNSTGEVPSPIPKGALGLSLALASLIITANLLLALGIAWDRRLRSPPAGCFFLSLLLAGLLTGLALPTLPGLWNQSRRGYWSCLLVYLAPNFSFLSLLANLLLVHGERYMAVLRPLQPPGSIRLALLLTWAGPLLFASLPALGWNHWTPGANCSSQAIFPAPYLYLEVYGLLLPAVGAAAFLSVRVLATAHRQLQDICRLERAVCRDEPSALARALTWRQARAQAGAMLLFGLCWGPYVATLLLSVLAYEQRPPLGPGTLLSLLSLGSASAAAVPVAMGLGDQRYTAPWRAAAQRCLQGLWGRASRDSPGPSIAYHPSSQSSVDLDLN

[4] = tested on: Mus musculus; assay: In vivo inhibition of DDP4 in ICR mouse assessed as decrease in enzyme activity in serum at 200 mg/kg,po and measured at 2 hrs using Gly-Pro-AMC as substrate by fluorescence based microplate reader assay; format: functional, organism-based
[5] = tested on: Mus musculus; assay: In vivo inhibition of DDP4 in ICR mouse assessed as decrease in enzyme activity in ileum at 30 mg/kg,po and measured after 8 hrs using Gly-Pro-AMC as substrate by fluorescence based microplate reader assay; format: functional, organism-based
[6] = tested on: Mus musculus; assay: In vivo inhibition of DDP4 in ICR mouse assessed as decrease in enzyme activity in serum at 200 mg/kg,po and measured at 4 hrs using Gly-Pro-AMC as substrate by fluorescence based microplate reader assay; format: functional, organism-based
[7] = tested on: Mus musculus; assay: In vivo inhibition of DDP4 in ICR mouse assessed as decrease in enzyme activity in ileum at 200 mg/kg,po and measured after 8 hrs using Gly-Pro-AMC as substrate by fluorescence based microplate reader assay; format: functional, organism-based
[8] = tested on: Mus musculus; assay: In vivo inhibition of DDP4 in ICR mouse assessed as decrease in enzyme activity in serum at 200 mg/kg,po and measured after 8 hrs using Gly-Pro-AMC as substrate by fluorescence based microplate reader assay; format: functional, organism-based
[9] = tested on: Mus musculus; assay: Induction of gut restriction in overnight fasted ICR mouse assessed as effect on gallbladder-filling by measuring bile weight at 50 mg/kg, po and measured after 4 hrs by Vernier caliper analysis; format: functional, organism-based
[10] = tested on: Mus musculus; assay: Induction of gut restriction in overnight fasted ICR mouse assessed as effect on gallbladder-filling by measuring gallbladder volume at 50 mg/kg, po and measured after 4 hrs by Vernier caliper analysis; format: functional, organism-based
[11] = Water solubility at pH 6.8; format: physicochemical

SMILES | EC50 [1] [nM] | IC50 [2] [nM] | EC50 [3] [nM] | solubility [11] [µM] | also measured
O=C(O)CCc1cc(Cl)c(Oc2ccsc2C(=O)N2CCN(C3CC3)c3ccccc32)cc1Cl | 10.5 | > 10000 | 11.2 |  | 
N[C@@H](CC(=O)N1CCn2c(nnc2C(F)(F)F)C1)Cc1cc(F)c(F)cc1F |  |  |  |  | inhibition [4]: Active; inhibition [5]: Active; inhibition [6]: Active; inhibition [7]: Active; inhibition [8]: Active
O=C(c1cnccc1Oc1cc(Cl)ccc1Cl)N1CCN(C2CC2)c2ccccc21 |  |  |  |  | Activity [9]: inactive; Activity [10]: inactive
CC1C(=O)NCCCN1C(=O)C[C@H](N)Cc1cc(F)c(F)cc1F (mixture of isomers) | > 1000 | 10.4 | > 1000 |  | 
N[C@@H](CC(=O)N1CCCN(CC(=O)NCCOCCOCCOCCOCCOCCOCCOCCNC(=O)CCc2cc(Cl)c(Oc3ccsc3C(=O)N3CCN(C4CC4)c4ccccc43)cc2Cl)C(=O)C1Cc1ccccc1)Cc1cc(F)c(F)cc1F (mixture of isomers) | 2.1 | 103 | 3.6 | 20 | 
CC1C(=O)N(CC(=O)NCCOCCOCCOCCOCCOCCOCCOCCOCCNC(=O)CCc2cc(Cl)c(Oc3ccsc3C(=O)N3CCN(C4CC4)c4ccccc43)cc2Cl)CCCN1C(=O)C[C@H](N)Cc1cc(F)c(F)cc1F (mixture of isomers) | 2.4 | 64.8 | 3.2 | 50 | 
N[C@@H](CC(=O)N1CCCNC(=O)C1Cc1ccccc1)Cc1cc(F)c(F)cc1F (mixture of isomers) |  | 0.8 |  |  | 
N[C@@H](CC(=O)N1CCCN(CC(=O)NCCOCCOCCOCCNC(=O)CCc2cc(Cl)c(Oc3ccsc3C(=O)N3CCN(C4CC4)c4ccccc43)cc2Cl)C(=O)C1Cc1ccccc1)Cc1cc(F)c(F)cc1F (mixture of isomers) | 3.7 | 113 | 6.1 | 10 | 
CC1C(=O)N(CC(=O)NCCOCCOCCOCCOCCOCCOCCNC(=O)CCc2cc(Cl)c(Oc3ccsc3C(=O)N3CCN(C4CC4)c4ccccc43)cc2Cl)CCCN1C(=O)C[C@H](N)Cc1cc(F)c(F)cc1F.F (mixture of isomers) | 2.3 | 60.1 | 2.8 | 50 | 
N[C@@H](CC(=O)N1CCCN(CC(=O)NCCOCCOCCOCCOCCOCCOCCNC(=O)CCc2cc(Cl)c(Oc3ccsc3C(=O)N3CCN(C4CC4)c4ccccc43)cc2Cl)C(=O)C1Cc1ccccc1)Cc1cc(F)c(F)cc1F (mixture of isomers) | 2.3 | 112 | 3.7 | 20 | 
C.N[C@@H](CC(=O)N1CCCN(CC(=O)NCCOCCOCCOCCOCCOCCOCCOCCOCCNC(=O)CCc2cc(Cl)c(Oc3ccsc3C(=O)N3CCN(C4CC4)c4ccccc43)cc2Cl)C(=O)C1Cc1ccccc1)Cc1cc(F)c(F)cc1F (mixture of isomers) | 2.3 | 104 | 3.8 |  | 
CC1C(=O)N(CC(=O)NCCOCCOCCOCCOCCOCCNC(=O)CCc2cc(Cl)c(Oc3ccsc3C(=O)N3CCN(C4CC4)c4ccccc43)cc2Cl)CCCN1C(=O)C[C@H](N)Cc1cc(F)c(F)cc1F (mixture of isomers) | 2.3 | 57.5 | 2.5 | 50 | 
CC1C(=O)N(CC(=O)NCCOCCOCCOCCNC(=O)CCc2cc(Cl)c(Oc3ccsc3C(=O)N3CCN(C4CC4)c4ccccc43)cc2Cl)CCCN1C(=O)C[C@H](N)Cc1cc(F)c(F)cc1F (mixture of isomers) | 4.3 | 119 | 4.5 |  | 
CC1C(=O)N(CC(=O)NCCOCCOCCOCCOCCOCCOCCOCCNC(=O)CCc2cc(Cl)c(Oc3ccsc3C(=O)N3CCN(C4CC4)c4ccccc43)cc2Cl)CCCN1C(=O)C[C@H](N)Cc1cc(F)c(F)cc1F (mixture of isomers) | 2.1 | 54.8 | 2.8 | 50 | 
N[C@@H](CC(=O)N1CCCN(CC(=O)NCCOCCOCCOCCOCCOCCNC(=O)CCc2cc(Cl)c(Oc3ccsc3C(=O)N3CCN(C4CC4)c4ccccc43)cc2Cl)C(=O)C1Cc1ccccc1)Cc1cc(F)c(F)cc1F (mixture of isomers) | 2.7 | 124 | 4.9 | 10 | 
CC1C(=O)N(CC(=O)NCCN(C)C(=O)CCc2cc(Cl)c(Oc3ccsc3C(=O)N3CCN(C4CC4)c4ccccc43)cc2Cl)CCCN1C(=O)C[C@H](N)Cc1cc(F)c(F)cc1F (mixture of isomers) | 6 | 224 | 14.9 |  | 
